Experimental findings from patent publication EP1304101A1, “Composition and method for use of pyridinium derivatives in cosmetic and therapeutic applications” (Torrent Pharmaceuticals Ltd, priority 2001, dated 2003) are described below.

One experiment addresses T1, AGE-BSA (Bos taurus, UniProt P02769).
T1 construct: Bovine serum albumin (fraction V) (BSA); from tissue
As to the kind of experiment: In-vitro AGE breaking activity by ELISA (16 weeks AGE-BSA incubated with test compound). The experiment is classed as biochemical, bovine. The conditions noted are these: for % Breakage: 37°C, 24 hours.

Experiment [1] in a line: Free radical scavenging activity on ABTS radical cation (absorbance at 730nm). Type of experiment: biochemical. How it is done: This method measures the relative ability of free radical scavenging substances to scavenge the ABTS ^.+ i.e. 2,2-Azino-bis-(3-ethyl benzo thiazoline-6-sulfonate) radical cation as compared to a standard amount of standard or free radical scavengers antioxidants. Incubation of ABTS with Peroxidase (metmyoglobin) and hydrogen peroxide results in the production of radical cation ABTS^.+ . This species is blue- green in colour and can be detected at 730nm. Antioxidants or free radical scavengers in the added sample that causes suppression of the color to a degree that is proportional to their concentration.
• A. Phosphate Citrate Buffer (pH 5.0): 48.5ml of 0.1M citric acid with sufficient 0.2M disodium hydrogen phosphate to produce 100 ml. • B. Phosphate Buffer Saline (PBS): Dissolve 40.0g of NaCl, 1.0g of KCI, 1.0g of KH2PO4 and 3.05g of Na2HPO4 in 1 litre milli-Q water. Dilute 200ml of above solution to 1 litre with milli-Q water (pH 7.4-7.6). • C. 3µM stock solution of Peroxidase was prepared in phosphate buffer saline pH 7.4(PBS). • D. 1.08 mM stock solution of Hydrogen peroxide was prepared in phosphate buffer saline pH 7.4 (PBS).
1 tablet (10mg) was dissolved in phosphate citrate buffer (pH 5.0).
5.0ml of ABTS stock solution was diluted with PBS to 20 ml.
320 µg of the enzyme was dissolved in 2.5 ml of PBS.
12µl of Hydrogen Peroxide (30%w/v) was diluted to 100ml with PBS.
0.1mM of stock solution of the drug was prepared which was serially diluted in PBS to get solutions of different concentrations.
To 18ml of ABTS stock solution, 100µl of Horseradish Peroxidase stock solution was added.
As soon as 1.5 ml of hydrogen peroxide solution was added to the above solution, blue-green colour of the ABTS radicals appeared. This solution was incubated at 30°C for 30 min.
980µl of ABTS radical stock solution was added to an eppendorf tube. To it was added 100µl of various PBS solution.
980µl of ABTS radical stock solutions were added to different eppendorf tubes. To it were added 100µl of various concentrations of drug solution.
The absorbance of control and test samples was recorded immediately at 730nm taking PBS as blank.
Calculation: The percent antioxidant activity was calculated according to the formula: % Antioxidant activity = [O.D of test sample/O.D of control*100]-100.

Setting [2] is: comparison in words based on Table 2.

Each structure is given as a SMILES string.

T1 sequence (P02769 25-607): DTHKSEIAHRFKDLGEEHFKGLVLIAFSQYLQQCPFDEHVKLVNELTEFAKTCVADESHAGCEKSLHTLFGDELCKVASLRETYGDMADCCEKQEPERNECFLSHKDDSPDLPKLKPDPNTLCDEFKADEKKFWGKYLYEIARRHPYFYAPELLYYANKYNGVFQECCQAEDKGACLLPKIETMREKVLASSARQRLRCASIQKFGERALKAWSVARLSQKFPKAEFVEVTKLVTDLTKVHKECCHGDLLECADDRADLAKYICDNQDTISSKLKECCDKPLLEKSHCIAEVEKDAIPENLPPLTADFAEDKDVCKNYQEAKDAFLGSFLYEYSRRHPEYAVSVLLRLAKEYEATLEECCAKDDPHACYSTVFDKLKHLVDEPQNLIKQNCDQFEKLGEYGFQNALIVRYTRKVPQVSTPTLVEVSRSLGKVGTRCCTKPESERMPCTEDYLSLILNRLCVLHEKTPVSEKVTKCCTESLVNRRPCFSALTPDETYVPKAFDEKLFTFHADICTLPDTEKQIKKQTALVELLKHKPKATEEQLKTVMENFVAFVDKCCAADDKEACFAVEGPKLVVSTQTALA
Method for AGE-BSA: AGE breaking activity has been confirmed by the screening procedure as mentioned below: • Materials: • Bovine serum albumin (fraction V) (BSA) • Glucose, analytical grade • Phosphate buffered saline (PBS) • Equipment: • Microplate ELISA Reader - Spectramax Plus (Molecular Devices, USA) • Microplate washer, (Bio -Tec Instruments, USA) • pH meter • Methods of experiment: Elisa (Enzyme Linked Immunosorbent Assay) 160 mg/ml of protein, bovine serum albumin, BSA and 1.6M glucose sugar were dissolved in phosphate buffered saline, PBS. Sodium azide was added at 0.02% concentration as a preservative. The solution was filtered asceptically through a 0.22 µM filter and kept for aging at 37°C for 16 weeks. After 16 weeks the solution was dialyzed against PBS, aliquoted and stored at - 20°C.
To determine the AGE breaking activity, 10 µg/ml of the 16 weeks AGE-BSA was incubated with different concentrations of the test compounds at 37°C for 24 hours and AGE breaking activity of the test compounds by ELISA was determined.
Different concentrations of 16 weeks AGE-BSA were coated on a microtitre plate as standard. Each concentration is coated in triplicates. • 2. The test samples were coated on microtitre plate at a concentration of 5 ng. to 20 ng per well in triplicates. • 3. The plate was incubated at 37°C for one hour. • 4. After incubation the plate was washed with PBST (PBS with 0.05% Tween 20). • 5. Blocking with 5% skimmed milk in PBS at 37°C for one hour was done. • 6. The plate was washed with PBST. • 7. Primary antibody against AGE-BSA was added and the plate is incubated at 37°C for one hour. • 8. The plate was washed with PBST • 9. Secondary antibody anti rabbit HRPO (Horse-Radish Per Oxidase) conjugate was added and the plate is incubated at 37°C for one hour. • 10. The plate was washed with PBST. • 11. Colour development with OPD (orthophenylenediamine dihydrochloride) and hydrogen peroxide was done. • 12. OD (optical density) at (450nm reading - 620nm reading) was measured after incubation at 37°C for 15 minutes with Microplate ELISA Reader.
The breaker activity of the compounds were determined by the following formula: % Breaker activity =(OD450-620 Control - OD450-620 Test)/(OD450-620 Control)x 100 [formula] OD450-620Control= Absorbance of 20ng AGE-BSA after incubation at 37°C for 24 hours without test compound OD450-620Test= Absorbance of 20ng AGE-BSA after incubation at 37°C for 24 hours with required concentration of test compound

On to `O=C(NCCO)c1ccc[n+](CC(=O)c2cccs2)c1` [Compound 90, 1-(2-Thien-2'-yl-2-oxoethyl)-3-((2-hydroxyethyl)aminocarbonyl) pyridinium bromide], for which the “% Breakage” value on AGE-BSA (10 mM test compound) is on record as 50%. The “Relative Free Radical Scavenging Activity(%) on ABTS” value in experiment [1] (11.5µM) amounted to 47.8%; in experiment [1] (23.0µM) it was 58.8%; in experiment [1] (46.0µM) it was 78.2%; in experiment [1] (92.5µM), 99.5%; in experiment [1] (925µM), 100%.

Regarding `CCOC(=O)C[n+]1cccc(C(=O)NNc2ccccn2)c1.[Br-]` [Compound 4, 1-(2-ethoxy-2-oxoethyl) -3-(2-(2-pyridyl) hydrazinocarbonyl) pyridinium bromide], the “% Breakage” value at AGE-BSA (10 mM test compound) was found to be 30%. Moreover, the “AGE breaking activity compared to PTB” value on AGE-BSA (setting [2]) is “superior”. In addition, the “Relative Free Radical Scavenging Activity(%) on ABTS” value in experiment [1] (11.5µM) worked out at 58.2%; in experiment [1] (23.0µM) it was 64.3%; in experiment [1] (46.0µM), 69.3%; in experiment [1] (92.5µM), 98.6%; in experiment [1] (925µM), 100%.

With `O=C(NNC(=O)c1ccc[n+](CC(=O)c2cc([N+](=O)[O-])cs2)c1)c1ccc[n+](CC(=O)c2cc([N+](=O)[O-])cs2)c1` [Compound 56, N, N'-bis [3-carbonyl-1-(2-(4-nitrothien-2-yl)-2-oxoethyl)pyridinium] hydrazine dichloride], the “% Breakage” value at AGE-BSA (10 mM test compound) is 75.92%. Besides, the “Relative Free Radical Scavenging Activity(%) on ABTS” value is 43.0% in experiment [1] (11.5µM); 57.2% in experiment [1] (23 µM); 71.6% in experiment [1] (46 µM); 97.7% in experiment [1] (92.5µM); 100% in experiment [1] (925µM).

On to `CCCCOC(=O)c1ccc[n+](CC(=O)Nc2ccccc2)c1.[Cl-]` [Compound 93, 1-(2- Phenylamino-2-oxoethyl) -3-(n-butyloxycarbonyl) pyridinium chloride], for which the “% Breakage” value on AGE-BSA (10 mM test compound) turned out to be 57%. In addition, the “Relative Free Radical Scavenging Activity(%) on ABTS” value amounted to 8.5% in experiment [1] (11.5µM); 8.6% in experiment [1] (23.0µM); 9.6% in experiment [1] (46.0µM); 11.4% in experiment [1] (92.5µM); 25.0% in experiment [1] (925µM).

With `CS(=O)(=O)NNC(=O)c1cc(Br)c[n+](CC(=O)c2cccs2)c1` [Compound 53, 1-(2-thien-2'-yl-2-oxoethyl)-3-(methanesulfonyl hydrazinocarbonyl)-5-bromo pyridinium bromide], on AGE-BSA (2.5 mM test compound), the “% Breakage” value was found to be 29.36%.

For the compound `CC(=O)OCCOC(=O)c1ccc[n+](CC(=O)c2ccccc2)c1.[Br-]` [Compound 16, 1-(2-phenyl-2-oxoethyl) -3-(2-(acetoxy)ethyloxycarbonyl) pyridinium bromide], the “% Breakage” value at AGE-BSA (10 mM test compound) is on record as 16%.

As for `COCCNC(=O)c1ccc[n+](CC(=O)NC2CC2)c1.[Cl-]` [Compound 40, 1-(2-cyclopropylamino-2-oxoethyl)-3-(2-methoxyethylaminocarbonyl)-pyridinium chloride], the “% Breakage” value on AGE-BSA (10 mM test compound) is given as 12.38%.

For `O=C(NNC(=O)c1ccc[n+](CC(=O)c2ccc(Cl)s2)c1)c1ccc[n+](CC(=O)c2ccc(Cl)s2)c1` [Compound 62, N, N'-bis [3-carbonyl-1-(2-(5-chlorothien-2-yl)-2-oxoethyl)pyridinium] hydrazine dichloride], at AGE-BSA (10 mM test compound), the “% Breakage” value worked out at 78.41%. At AGE-BSA (setting [2]), the “AGE breaking activity compared to PTB” value is “superior” and the “potency (AGE breaking activity compared to PTB)” value is “significantly much higher”.

On to `CCOC(=O)C[n+]1cccc(C(=O)OCCOC(=O)c2ccccc2)c1.[Br-]` [Compound 17, 1-(2-ethoxy-2-oxoethyl) -3-(2-(benzoyloxy)ethyloxycarbonyl) pyridinium bromide], for which the “% Breakage” value on AGE-BSA (10 mM test compound) is recorded as 19%.

With `Cc1ccc(C(=O)NNS(C)(=O)=O)c[n+]1CC(=O)c1cccs1` [Compound 57, 1-(2-thien-2'-yl-2-oxoethyl)-3-(methanesulfonyl hydrazinocarbonyl) -6-methyl pyridinium bromide], at AGE-BSA (1 mM test compound), the “% Breakage” value is listed as 77.69%.

With `NC(=O)c1ccc[n+](CC(=O)c2cccs2)c1` [Compound 85, 3-Carbonylamino-1-(2-thien-2'-yl-2-oxoethyl)-pyridinium bromide], the “% Breakage” value on AGE-BSA (10 mM test compound) turned out to be 3%.

For the compound `CCOC(=O)C1CSCN1C(=O)C[n+]1cccc(C(=O)NNS(C)(=O)=O)c1.[Cl-]` (stereo not shown) [Compound 61, 1-(2-(4-carboethoxy-thiazolidin-3-yl)-2-oxoethyl) -3-(methanesulfonyl hydrazinocarbonyl) pyridinium chloride], on AGE-BSA (10 mM test compound), the “% Breakage” value was found to be 25.06%.

As for `CCCCNC(=O)c1ccc[n+](CC(=O)Nc2ccccc2)c1.[Cl-]` [Compound 94, 1-(2-Phenylamino - 2-oxoethyl) - 3 - (n-butylaminocarbonyl) pyridinium chloride], the “% Breakage” value at AGE-BSA (10 mM test compound) amounted to 27%.

With `O=C(C[n+]1cccc(C(=O)NNC(=O)c2ccc[n+](CC(=O)c3ccccc3)c2)c1)c1ccccc1` [Compound 1, N, N'-bis [3-carbonyl-1-(2-phenyl-2-oxoethyl)-pyridinium] hydrazine dibromide], the “% Breakage” value at AGE-BSA (5 mM test compound) worked out at 13%.

Regarding `O=C(C[n+]1ccc(C(=O)NCCOC(=O)c2ccccc2)cc1)Nc1ccccc1.[Cl-]` [Compound 66, 1-(2-phenylamino-2-oxoethyl)-4-[2-(benzoyloxy)ethylaminocarbonyl] pyridinium chloride], the “% Breakage” value at AGE-BSA (10 mM test compound) was 19.07%.

As for `CCOC(=O)C[n+]1cccc(C(=O)NCCO)c1.[Br-]` [Compound 87, 1-(2-Ethoxy-2-oxoethyl)-3-((2-hydroxyethyl)aminocarbonyl) pyridinium bromide], the “% Breakage” value on AGE-BSA (10 mM test compound) was found to be 43%.

Turning to `COCCNC(=O)c1cc(Br)c[n+](CC(=O)c2cccs2)c1` [Compound 47, 1-(2-thien-2'-yl-2-oxoethyl)-3-((2-methoxyethyl)aminocarbonyl)-5-bromo pyridinium chloride], the “% Breakage” value at AGE-BSA (10 mM test compound) worked out at 32.38%. Besides, the “AGE breaking activity compared to PTB” value on AGE-BSA (setting [2]) is reported as “superior”.

For `O=C(C[n+]1ccsc1)c1ccccc1` [PTB, reference compound], the “% Breakage” value on AGE-BSA (10 mM test compound) stood at 27%; at AGE-BSA (20 mM test compound), 47%.

On to `O=C(NNC(=O)c1ccc[n+](CC(=O)c2ccco2)c1)c1ccc[n+](CC(=O)c2ccco2)c1` [Compound 32, N, N' - bis [3-carbonyl-1-(2-furan-2'-yl-2-oxoethyl)pyridinium] hydrazine dibromide], for which the “% Breakage” value at AGE-BSA (10 mM test compound) is 14%.

With `Cc1ccc(C(=O)C[n+]2cccc(C(=O)NNC(=O)c3ccc[n+](CC(=O)c4ccc(C)s4)c3)c2)s1` [Compound 58, N, N'-bis [3-carbonyl-1-(2-(5-methylthien-2-yl)-2-oxoethyl)pyridinium] hydrazine dichloride], the “% Breakage” value at AGE-BSA (10 mM test compound) was 81.95%.

On to `CC(C)NC(=O)C[n+]1cccc(C(=O)NNS(C)(=O)=O)c1.[Cl-]` [Compound 43, 1-(2-isopropylamino-2-oxoethyl)-3-(2-methylsulfonylhydrazinocarbonyl) -pyridinium chloride], for which the “% Breakage” value at AGE-BSA (10 mM test compound) amounted to 10.85%.
